Changes are numbered by the printed parent chain.
How the values were obtained:
GFP-Pif1 [1] = biological target: T1, GFP-Pif1 (Saccharomyces cerevisiae, UniProt P07271); experiment: ATP hydrolysis, [γ-32P]-ATP TLC, Michaelis-Menten fit; format: biochemical; conditions: M13 ssDNA 1.5 μM nt, 10 nM Pif1, 5 mM MgCl2, 60 mM KCl, pH 7.5, 30 °C, no RPA; labelled compound as tracer
T1 construct: N-terminal superfolder GFP fusion of nuclear isoform residues 40-859, pRSF-Duet-1, E. coli Rosetta2(DE3), Ni-NTA purified
T1 sequence (P07271 40-859): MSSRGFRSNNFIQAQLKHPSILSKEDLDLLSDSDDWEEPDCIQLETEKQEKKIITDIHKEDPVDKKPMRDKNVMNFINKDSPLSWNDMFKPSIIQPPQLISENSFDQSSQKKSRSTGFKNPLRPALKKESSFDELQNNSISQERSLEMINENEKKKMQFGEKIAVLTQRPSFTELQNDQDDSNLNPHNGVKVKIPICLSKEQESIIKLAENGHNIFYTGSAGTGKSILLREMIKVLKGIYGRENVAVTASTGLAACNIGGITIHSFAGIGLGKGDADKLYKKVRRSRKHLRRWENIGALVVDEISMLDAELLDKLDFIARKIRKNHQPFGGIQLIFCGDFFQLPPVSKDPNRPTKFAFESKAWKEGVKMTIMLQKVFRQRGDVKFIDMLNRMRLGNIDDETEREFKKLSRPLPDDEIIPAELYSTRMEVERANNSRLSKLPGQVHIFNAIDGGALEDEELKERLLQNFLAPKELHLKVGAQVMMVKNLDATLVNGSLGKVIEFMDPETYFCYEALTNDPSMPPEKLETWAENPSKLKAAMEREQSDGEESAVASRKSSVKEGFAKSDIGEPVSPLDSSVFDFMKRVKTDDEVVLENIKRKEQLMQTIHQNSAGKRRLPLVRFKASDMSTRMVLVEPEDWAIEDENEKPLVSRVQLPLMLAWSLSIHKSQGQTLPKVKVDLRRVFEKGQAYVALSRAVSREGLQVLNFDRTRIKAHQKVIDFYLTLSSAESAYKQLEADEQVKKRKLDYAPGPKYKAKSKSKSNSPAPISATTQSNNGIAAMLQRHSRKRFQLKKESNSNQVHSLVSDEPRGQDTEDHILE
Experimental: ATP hydrolysis, [γ-32P]-ATP TLC, Michaelis-Menten fit on GFP-Pif1 | Values for Vmax, Km, and kcat were determined and compared to WT Pif1

GFP-Pif1 [2] = biological target: T2, GFP-Pif1 (Saccharomyces cerevisiae, UniProt P07271, T301A); experiment: as above; format: biochemical; conditions: M13 ssDNA 1.5 μM nt, 10 nM Pif1, 5 mM MgCl2, 60 mM KCl, pH 7.5, 30 °C, no RPA; labelled compound as tracer
T2 construct: N-terminal superfolder GFP fusion of nuclear isoform residues 40-859, pRSF-Duet-1, E. coli Rosetta2(DE3), Ni-NTA purified
T2 sequence (P07271 40-859 T301A): T1 sequence (P07271 40-859) with T262A

Nc1ncnc2c1ncn2[C@@H]1O[C@H](COP(=O)(O)OP(=O)(O)OP(=O)(O)O)[C@@H](O)[C@H]1O [ATP]
Km (GFP-Pif1 [1]): 470 ± 620 µM | Km (GFP-Pif1 [2]): 1 ± 0.83 mM
